{
  "source": "paper PMC7961587",
  "about": "“Novel Cell Permeable Polymers of N-Substituted L-2,3-Diaminopropionic Acid (DAPEGs) and Cellular Consequences of Their Interactions with Nucleic Acids” (International Journal of Molecular Sciences, 2021)",
  "key": {"[1]": {"system": "HB2 and MDA-MB-231 cells", "assay": "Cytotoxicity assay CCK-8", "type": "cell-based, human", "settings": "CCK8, Figure S5; 1–100 µM; 2 h or 24 h", "procedure": "Cell viability against cell-penetrating peptidomimetics was detected using the cell counting kit-8 (CCK-8) assay (Sigma Aldrich, Poznan, Poland). The HB2 and MDA-MB-231 cells were seeded into 96-well plates at a density of 5 × 10^3/well and 7 × 10^3/well, respectively, and incubated in complete medium (100 µL/well) for 48 h. Then, the medium was replaced with fresh medium (100 µL/well), and solutions of compounds at various concentrations (1, 5, 10, 20, 50, and 100 µM) were added; the cells were incubated for 2 h or 24 h. Cells incubated in media without any additives were used as control. After incubation, 10 µL/well of 2-(2-methoxy-4-nitrophenyl)-3-(4-nitrophenyl)-5-(2,4-disulfophenyl)-2H-tetrazolium, monosodium salt (WST-8) reagent was added according to the manufacturers’ instructions, and the mixture was incubated at 37 °C for 4 h. Cell viability was analyzed on the basis of formazan absorbance using a microplate reader (SPECTROstar Nano, BMG LABTECH, Ortenberg, Germany) at 450 nm.\nTable 1S. Minimal charge to ratio (N/P) of each compoun d for efficient complexation with\nDNA. *minimal N/P ratio resulting in effective complex formation based on EMSA. **ND ‐\nNo Sequence Minimal N/P ratio*\n9 O2Oc‐[Dap(HO2)]6‐O2Oc‐NH2 No binding\nFigure 5S. CCK8 cytotoxicity assay performed for three compounds (5, 13, and 14). Two\ndifferent cell lines were used: A) HB‐2 and B) MDA‐MB‐231 […]"}, "[2]": {"system": "HB2 and MDA-MB-231 cells", "assay": "Transfection with pmaxGFP plasmid and cytotoxicity of plasmid:compound complexes", "type": "cell-based, human", "settings": "pmaxGFP:compound complex 4.62 × 10^−10 M", "excerpt": "Figure 10 (A) Fluorescence imaging of HB-2 and MDA-MB-231 cells transfected with pmaxGFP plasmid mixed with compounds 5, 13, 14, or the commercially available transfection reagent (control). (B) Cytotoxicity of plasmid pmaxGFP:compound complex in HB2 and MDA-MB-231 cells at the concentration of the complex equal to 4.62 × 10^−10 M.\nIn this experiment, second-generation compounds (compounds 5, 13, and 14) were used as transfection reagents. See transfection procedure in methodology below. After gene expression, the medium was removed and cells were lysed with 0.5 M NaOH (100 µL/well), and the fluorescence intensity was analyzed using a microplate reader at excitation and emission wavelengths of 488 and 510 nm, respectively.\nIn this experiment, second-generation (GO2)n compounds (compounds 5, 13, and 14) were used as transfection reagents. HB2 and MDA-MB-231 were seeded in 96-well plates at a density of 5 × 10^3/well and 7 × 10^3/well in complete medium and grown until 60–70% confluency. […] The DNA concentration was determined using UV readout at 260/280 nm. […] Results were observed by fluorescence microscopy."}},
  "data": [
    {"smiles": "N=C(N)NCCOCCOCC(=O)NC[C@H](NC(=O)COCCOCCN)C(=O)N[C@@H](CNC(=O)COCCOCCNC(=N)N)C(=O)N[C@@H](CNC(=O)COCCOCCNC(=N)N)C(=O)N[C@@H](CNC(=O)COCCOCCNC(=N)N)C(=O)N[C@@H](CNC(=O)COCCOCCNC(=N)N)C(=O)N[C@@H](CNC(=O)COCCOCCNC(=N)N)C(=O)N[C@@H](CNC(=O)COCCOCCNC(=N)N)C(=O)N[C@@H](CNC(=O)COCCOCCNC(=N)N)C(=O)NCCOCCOCC(N)=O", "note": "[compound 14, O2Oc-[Dap(GO2)]8-O2Oc-NH2]", "values": [
      {"measurement": "Cytotoxicity (CCK-8), in words", "setting": "[1]", "result": "low cytotoxicity"},
      {"measurement": "Post-transfection cytotoxicity", "setting": "[2]", "result": 30, "unit": "%"}
    ]}
  ]
}
